Data on four molecules can be found in patent US20080317857A1, “V-Atpase Inhibitors of Use in the Treatment of Septic Shock” (Brane Discovery S.r.l., priority 2005, published 2008).

Like-named read-outs stand apart in the source and are kept apart here.

Experiment [1] deals with NADPH-oxidase activation (H2O2 release) in Monocytes. Put plainly: Respiratory burst (H2O2 assay) in monocytes. The format is cell-based, human. The note with it: for inhibition at 0.4 µM / inhibition at 1 µM / inhibition at 25 µM / inhibition at 50 µM / inhibition at 100 µM / inhibition at 0.0005 µM / inhibition at 0.001 µM: Homo sapiens, Monocyte; for inhibition at 0.4 µM: [cpd] 0.4 μM; for inhibition at 1 µM: [cpd] 1.0 μM; for respiratory burst / NADPH-oxidase activation induced by PMA in monocytes (in words): PMA 200 ng/ml; for inhibition at 25 µM: [cpd] 25 μM; for inhibition at 50 µM: [cpd] 50 μM; for inhibition at 100 µM: [cpd] 100 μM. Here is the method: (§1) NADPH-oxidase activation was measured as induction of H2O2 release (derived from dismutation of O2^−) triggered in PMNs and monocytes by PMA (200 ng/ml). Briefly, PMNs and monocytes were pretreated at 37° C. for 30-60 min with test compound at different concentrations, and stimulated with phorbol 12-myristate 13-acetate (PMA, 200 ng/ml) dissolved in 0.5 ml of a standard reaction mixture. Release of H2O2 was evaluated in real time at time points of 5 min by using a microplate fluorescence reader (Perkin-Elmer). Results are expressed as nmoles of H2O2 released over time by 10^6 cells. Shown are dose-response curves of inhibitory effect on H2O2 release over 60 min.

Experiment [2] has as its system V-ATPase. To be noted: cited from earlier work; for inhibition of V-ATPase (in words): literature.
In experiment [3] the test system is rat ovariectomized model. To be noted: cited from earlier work.
For experiment [4], the system named is NADPH-oxidase activation (H2O2 release) in PMNs. Put plainly: Respiratory burst (H2O2 assay) in PMNs. The note with it: for inhibition at 25 µM / inhibition at 50 µM / inhibition at 100 µM / inhibition at 0.0005 µM / inhibition at 0.001 µM: Homo sapiens, read-out: Inhibition of H2O2 release induced by PMA in PMNs (% PMA control); for inhibition at 25 µM: [cpd] 25 μM; for inhibition at 50 µM: [cpd] 50 μM; for inhibition at 100 µM: [cpd] 100 μM. The format is cell-based, human. Here is the method:
as §1

Where [5] appears, read: 0.5 h, 30 min, read-out: Inhibition of H2O2 release induced by PMA in Monocytes (% PMA control).
The mark [6] stands for this setting: 40 min, 40 min, read-out: Inhibition of H2O2 release induced by PMA in Monocytes (% PMA control).
Where [7] appears, read: 50 min, 50 min, read-out: Inhibition of H2O2 release induced by PMA in Monocytes (% PMA control).

On to `O=C(Nc1cccc2c1nc(C(F)(F)F)n2CC(=O)N1CCOCC1)c1c(Cl)cccc1Cl` [FR-177995], for which the inhibition at 0.4 µM in experiment [1] (setting [5]) came out at 27.1%; in experiment [1] (setting [6]), 29%; in experiment [1] (setting [7]) it was 26.7%. Further, the inhibition at 1 µM was 21.3% in experiment [1] (setting [5]), 6.3% in experiment [1] (setting [6]) and 5.5% in experiment [1] (setting [7]). Also, the “respiratory burst / NADPH-oxidase activation induced by PMA in monocytes (in words)” value in experiment [1] is “had effect”. Moreover, the “concentrations generally active in inhibiting V-ATPase” value in experiment [2] was 0.4 to 1 µM. In addition, in experiment [3], the anti-osteoporotic activity result is recorded as “high anti-osteoporotic activity”.
Regarding `CCN1C(=O)C=CC1=O` [NEM, N-ethylmaleimide], the inhibition at 25 µM was determined as 100% in experiment [4] (0.5 h, 30 min); 100% in experiment [4] (40 min, 40 min); 100% in experiment [4] (50 min, 50 min); 100% in experiment [1] (setting [5]); 100% in experiment [1] (setting [6]); 100% in experiment [1] (setting [7]). Besides, the inhibition at 50 µM was 100% in experiment [4] (0.5 h, 30 min); 100% in experiment [4] (40 min, 40 min); 100% in experiment [4] (50 min, 50 min); 100% in experiment [1] (setting [5]); 100% in experiment [1] (setting [6]); 100% in experiment [1] (setting [7]). Moreover, the inhibition at 100 µM in experiment [4] (0.5 h, 30 min) was determined as 100%; in experiment [4] (40 min, 40 min), 100%; in experiment [4] (50 min, 50 min) it was 100%; in experiment [1] (setting [5]) it was 100%; in experiment [1] (setting [6]) it was 100%; in experiment [1] (setting [7]) it was 100%. In experiment [4] (PMA 200 ng/ml), the “respiratory burst / NADPH-oxidase activation induced by PMA in PMNs (in words)” value was “completely blocked”. The “respiratory burst / NADPH-oxidase activation induced by PMA in monocytes (in words)” value in experiment [1] is reported as “completely blocked”. For the same molecule, the “concentrations generally active in inhibiting V-ATPase” value in experiment [2] is above 25 µM.
For `CO/C1=C\C(C)=C\[C@@H](C)[C@@H](O)[C@@H](C)C/C(C)=C/C=C/[C@H](OC)[C@@H]([C@@H](C)[C@@H](O)[C@H](C)[C@@]2(O)C[C@@H](O)[C@H](C)[C@@H](C(C)C)O2)OC1=O` [Bafilomycin A1], the inhibition at 0.0005 µM was found to be 7.1% in experiment [4] (0.5 h, [cpd] 0.0005 μM, 30 min); 9.8% in experiment [4] (40 min, [cpd] 0.0005 μM, 40 min); 9.3% in experiment [4] (50 min, [cpd] 0.0005 μM, 50 min); 22.1% in experiment [1] (0.5 h, [cpd] 0.0005 μM, 30 min, read-out: Inhibition of H2O2 release induced by PMA in Monocytes (% PMA control)); 28.2% in experiment [1] (40 min, [cpd] 0.0005 μM, 40 min, read-out: Inhibition of H2O2 release induced by PMA in Monocytes (% PMA control)); 32.4% in experiment [1] (50 min, [cpd] 0.0005 μM, 50 min, read-out: Inhibition of H2O2 release induced by PMA in Monocytes (% PMA control)). Moreover, the inhibition at 0.001 µM in experiment [4] (0.5 h, [cpd] 0.001 μM, 30 min) was 26.4%; in experiment [4] (40 min, [cpd] 0.001 μM, 40 min) it was 27.2%; in experiment [4] (50 min, [cpd] 0.001 μM, 50 min), 29.9%; in experiment [1] (0.5 h, [cpd] 0.001 μM, 30 min, read-out: Inhibition of H2O2 release induced by PMA in Monocytes (% PMA control)), 30.8%; in experiment [1] (40 min, [cpd] 0.001 μM, 40 min, read-out: Inhibition of H2O2 release induced by PMA in Monocytes (% PMA control)) it was 37.2%; in experiment [1] (50 min, [cpd] 0.001 μM, 50 min, read-out: Inhibition of H2O2 release induced by PMA in Monocytes (% PMA control)) it was 47.9%. In addition, in experiment [1] (1 nM concentration, read-out: inhibition of the respiratory burst in monocytes), the inhibition at 0.001 µM came out at 48%. In experiment [2], the “inhibition of V-ATPase (in words)” value was “very potent and highly specific inhibitors”.
In the case of `C/C=C/[C@H]1O[C@@](O)([C@@H](C)[C@H](O)[C@H](C)[C@H]2OC(=O)/C(OC)=C/C(C)=C/[C@@H](C)[C@@H](O)[C@@H](CC)[C@@H](O)[C@H](C)C/C(C)=C/C=C/[C@@H]2OC)C[C@@H](O[C@H]2C[C@@H](O)[C@H](OC(N)=O)[C@@H](C)O2)[C@@H]1C` [Concanamycin A1, Concanamycin A], the “inhibition of the release of oxygen radicals in PMNs” value in experiment [4] (10 nM concentration) is on record as 58%. In addition, the “Inhibition of H2O2 release induced by PMA in PMNs (% PMA control)” value is listed as 33.4% in experiment [4] ([cpd] 0.0005 μM, 30 min); 35.2% in experiment [4] ([cpd] 0.0005 μM, 40 min); 38.9% in experiment [4] ([cpd] 0.0005 μM, 50 min); 36.2% in experiment [4] ([cpd] 0.001 μM, 30 min); 45.0% in experiment [4] ([cpd] 0.001 μM, 40 min); 56.4% in experiment [4] ([cpd] 0.001 μM, 50 min). Also, the “Inhibition of H2O2 release induced by PMA in PMNs (% PMA control)” value in experiment [4] ([cpd] 0.010 μM, 30 min) was 50.2%; in experiment [4] ([cpd] 0.010 μM, 40 min), 58.3%; in experiment [4] ([cpd] 0.010 μM, 50 min) it was 58.3%. The “inhibition of the release of oxygen radicals in monocytes” value in experiment [1] (10 nM concentration) is given as 50%. The “Inhibition of H2O2 release induced by PMA in Monocytes (% PMA control)” value in experiment [1] ([cpd] 0.0005 μM, 30 min) is reported as 17.0%; in experiment [1] ([cpd] 0.0005 μM, 40 min), 26.3%; in experiment [1] ([cpd] 0.0005 μM, 50 min), 33.3%; in experiment [1] ([cpd] 0.001 μM, 30 min), 35.7%; in experiment [1] ([cpd] 0.001 μM, 40 min) it was 43.4%; in experiment [1] ([cpd] 0.001 μM, 50 min) it was 50.2%. In experiment [2], the “inhibition of V-ATPase (in words)” value was “very potent and highly specific inhibitors”.
